Experimental data as given in US9878999B2, “Proteasome chymotrypsin-like inhibition using PI-1833 analogs” (H. Lee Moffitt Cancer Center and Research Institute, Inc., priority 2011, dated 2018).
“And” between values parts separate entries of the source, which are not always exact repeats. Equal entries are not always repeated. Where two headings read alike, the source gives them in different places.

Target: CT-L activity of purified 20S proteasome (Homo sapiens, UniProt P20618+P28074)
Assay: in vitro CT-L activity of purified 20S proteasome
Type: biochemical
Conditions: for fold loss of CT-L activity: compared to 1; for Chymotrypsin-like activity, % @ 10 μM: Table 2, @ 10 μM; for fold difference of CT-L potency between S- and R-enantiomer: 16c vs 16b, 16e vs 16f
[1] = Table 1, read-out: IC50 (μM) Chymotrypsin-like activity
[2] = read-out: % inhibition of CT-L @ 10 μM, @ 10 μM
[3] = Table 2, read-out: IC50 (μM) Chymotrypsin-like activity
[4] = Table 3, read-out: IC50 (μM) CT-L
[5] = Table 10, read-out: IC50 (μM) CT-L
[6] = Table 5, read-out: IC50 (μM) Chymotrypsin-like

CC(C)N(Cc1nc(-c2ccccc2)no1)C(=O)COc1ccc(-c2ccccc2)cc1 [11q, 2-(Biphenyl-4-yloxy)-N-isopropyl-N-((3-phenyl-1,2,4-oxadiazol-5-yl)methyl)acetamide]
IC50 [1]: > 10 µM | inhibition at 10 µM [2]: < 70%

CC(C)N(Cc1nc(-c2ccccc2)no1)C(=O)COc1ccc2cc(Br)ccc2c1 [11r, 2-(6-Bromonaphthalen-2-yloxy)-N-isopropyl-N-((3-phenyl-1,2,4-oxadiazol-5-yl)methyl)acetamide]
IC50 [1]: > 10 µM | inhibition at 10 µM [2]: < 70%

CC(C)N(Cc1nc(-c2ccccc2)no1)C(=O)COc1ccc(F)cc1 [11s, 2-(4-Fluorophenoxy)-N-isopropyl-N-((3-phenyl-1,2,4-oxadiazol-5-yl)methyl)acetamide]
CT-L inhibitory activity, in words: poor CT-L inhibitory activity | IC50 [1]: 8.73 ± 3.05 µM | fold loss of CT-L inhibitory activity (compared to 11b): 20 fold

CC(C)N(Cc1nc(-c2cccnc2)no1)C(=O)COc1ccc(O)cc1 [11u]
IC50 [1]: 0.98 ± 0.5 µM | IC50 (read-out: IC50, in vitro CT-L): ~1 µM

CC(C)N(Cc1nc(-c2ccccc2)no1)C(=O)COc1ccc(O)cc1 [11v, 2-(4-hydroxyphenoxy)-N-isopropyl-N-((3-phenyl-1,2,4-oxadiazol-5-yl)methyl)acetamide]
IC50 [1]: 10.1 ± 4.52 µM | IC50 (read-out: IC50, in vitro CT-L): 10 µM

Cc1ccc(OCC(=O)N(Cc2nc(-c3ccccn3)no2)C(C)C)cc1 [11w, N-Isopropyl-N-((3-(pyridin-2-yl)-1,2,4-oxadizaol-5-yl)methyl)-2-(p-tolyloxy)acetamide]
IC50 [1]: 3.75 ± 1.47 µM | IC50 (read-out: IC50, in vitro CT-L): 3.74 ± 1.47 µM

Cc1ccc(OCC(=O)N(Cc2nc(-c3cccnc3)no2)C(C)C)cc1 [11x, N-isopropyl-N-((3-(pyridin-3-yl)-1,2,4-oxadiazol-5-yl)methyl)-2-(p-tolyloxy)acetamide]
fold improved CT-L activity (compared to the hit 1 (PI-1833)): 2.5 fold | IC50 (read-out: IC50, in vitro CT-L): 0.239 ± 0.09 µM

Cc1ccc(OCC(=O)N(Cc2nc(-c3ccncc3)no2)C(C)C)cc1 [11y, N-Isopropyl-N-((3-(pyridin-4-yl)-1,2,4-oxadizaol-5-yl)methyl)-2-(p-tolyloxy)acetamide]
IC50 (read-out: IC50, in vitro CT-L): 0.37 ± 0.04 µM

Cc1ccc(OCC(=O)N(Cc2nc(-c3ccccc3)no2)C(C)C)cn1 [11z, N-Isopropyl-2-(60methylpyridin-3-yloxy)-N-((3-phenyl-1,2,4-oxadiazol-5-yl)methyl)acetamide]
CT-L inhibitory activity, in words: failed to retain the activity | IC50 [1]: 4 ± 0.89 µM

Cc1ccc(OCC(=O)N(Cc2nc(-c3ccc(C)cc3)no2)CC(C)C)cc1 [12a, N-Isobutyl-N-((3-p-tolyl-1,2,4-oxadiazol-5-yl)methyl)-2-(p-tolyloxy)acetamide]
fold loss of CT-L activity: 3 fold | IC50 (read-out: IC50, in vitro CT-L): 2.37 µM

CCN(Cc1nc(-c2ccc(C)cc2)no1)C(=O)COc1ccc(C)cc1 [12b, N-Ethyl-N-((3-p-tolyl-1,2,4-oxadiazol-5-yl)methyl)-2-(p-tolyloxy)acetamide]
IC50 [3]: 8.98 ± 5.21 µM | fold loss of CT-L activity: 14 fold | IC50 (read-out: IC50, in vitro CT-L): 8.8 µM

Cc1ccc(OCC(=O)N(C)Cc2nc(-c3ccc(C)cc3)no2)cc1 [12c, N-Methyl-N-((3-p-tolyl-1,2,4-oxadiazol-5-yl)methyl)-2-(p-tolyloxy)acetamide]
IC50 [3]: 29.9 ± 3.9 µM

Cc1ccc(OCC(=O)NCc2nc(-c3ccc(C)cc3)no2)cc1 [12d, N-((3-p-tolyl-1,2,4-oxadiazol-5-yl)methyl)-2-(p-tolyloxy)acetamide]
Chymotrypsin-like activity, % @ 10 μM: −62% @10 μM.

Cc1ccc(OCC(=O)N(Cc2nc(-c3ccc(C)cc3)no2)C(C)(C)C)cc1 [12e]
Chymotrypsin-like activity, % @ 10 μM: −108.42 ± 118.76%

Cc1ccc(OCC(=O)N(Cc2nc(-c3ccc(C)cc3)no2)C2CC2)cc1 [12f, N-Cyclopropyl-N-((3-p-tolyl-1,2,4-oxadiazol-5-yl)methyl)-2-(p-tolyloxy)acetamide]
Chymotrypsin-like activity, % @ 10 μM: −8.36 ± 19.03%

Cc1ccc(O[C@@H](C)C(=O)N(Cc2nc(-c3cccnc3)no2)C(C)C)cc1 [16b, (S)—N-Isopropyl-N-((3-(pyridine-3-yl)-1,2,4-oxadiazol-5-yl)methyl)-2-(p-tolyloxy)propanamide]
IC50 (read-out: IC50, in vitro CT-L): 0.214 µM

Cc1ccc(O[C@H](C)C(=O)N(Cc2nc(-c3cccnc3)no2)C(C)C)cc1 [16c, (R)—N-Isopropyl-N-((3-(pyridine-3-yl)-1,2,4-oxadiazol-5-yl)methyl)-2-(p-tolyloxy)propanamide]
fold difference of CT-L potency between S- and R-enantiomer: 35 fold | IC50 [4]: 7.52 ± 2.13 µM

CCCc1ccc(O[C@@H](C)C(=O)N(Cc2nc(-c3cccnc3)no2)C(C)C)cc1 [16e, (S)—N-Isopropyl-2-(4-propylphenoxy)-N-((3-(pyridine-3-yl)-1,2,4-oxadiazol-5-yl)methyl)propanamide]
fold difference of CT-L potency between S- and R-enantiomer: 40 fold | IC50 [4]: 0.075 µM

Cc1ccc(OCC(=O)N(Cc2nc(-c3ccc(C)cc3)no2)C(C)C)cc1 [PI-1833 (23)]
IC50 (Table 4, read-out: IC50 (μM) Chymotrypsin-like activity): 0.716 ± 0.27 µM

Cc1ccc(CNC(=O)N(Cc2nc(-c3ccccc3)no2)C(C)C)cc1 [SO2-024, 1-Isopropyl-3-(4-methylbenzyl)-1-((3-phenyl-1,2,4-oxadiazol-5-yl)methyl)urea]
IC50 [5]: > 10 µM | IC50 (read-out: IC50, in vitro CT-L): > 10 µM

CC(C)N(Cc1nc(-c2ccccc2)no1)C(=O)CCc1ccc(C(F)(F)F)cc1 [SO2-027, N-Isopropyl-N-((3-phenyl-1,2,4-oxadiazol-5-yl)methyl)-3-(4-(trifluoromethyl)phenyl)propanamide]
IC50 [5]: 15.7 µM | IC50 (read-out: IC50, in vitro CT-L): 15 µM

Cc1ccc(NCC(=O)N(Cc2nc(-c3ccccc3)no2)C(C)C)cc1 [SO2-090, N-Isopropyl-N-((3-phenyl-1,2,4-oxadiazol-5-yl)methyl)-2-(p-tolylamino)acetamide]
IC50 (read-out: IC50, in vitro CT-L): 5.67 µM

Cc1ccc(OCC(=O)N(CCc2nc(-c3ccccc3)no2)C(C)C)cc1 [SO2-091, N-Isopropyl-N-(2-(3-phenyl-1,2,4-oxadiazol-5-yl)ethyl)-2-(p-tolyloxy)acetamide]
inhibition at 10 µM [2]: 31%

CC(C)N(Cc1nc(-c2cccnc2)no1)C(=O)c1cc2ccccc2o1 [SO3-029]
IC50 [5]: 0.379 ± 0.063 µM

Cc1ccc(OCC(=O)N(Cc2nc(-c3ccc(C)cc3)no2)CC(C)C)cc1 [compound 36]
CT-L inhibitory activity, in words: loss of CT-L proteasome activity | IC50 (Table 7, 20S CT-L proteasome activity, read-out: IC50 (μM) CT-L): 2.37 ± 0.4 µM

CC(C)N(Cc1nc(-c2ccccc2)no1)C(=O)CCc1ccc(C(F)(F)F)cc1 [compound 41]
CT-L inhibitory activity, in words: activity was diminished

Cc1ccc(CNC(=O)N(Cc2nc(-c3ccccc3)no2)C(C)C)cc1 [compound 43]
CT-L inhibitory activity, in words: loss of CT-L activity

Cc1ccc(OCC(=O)N(Cc2nc(-c3ccc(C)cc3)no2)C(C)C)cc1 [drawing 108]
Screening Results (% Inhibition @ 10 μM) Chymotrypsin-like (Table 5, @ 10 μM, 10 µM): 74% and 67% and 71% | inhibition at 10 µM (Table 5, @ 10 μM, read-out: Screening Results (% Inhibition @ 10 μM) Chymotrypsin-like): 73% | IC50 [6]: 0.65 ± 0.38 µM

Cc1ccc(OCC(=O)N(Cc2nc(-c3ccc(C)cc3)no2)CC(C)C)cc1 [drawing 111]
IC50 [6]: 2.37 ± 0.4 µM

Cc1ccc(OCC(=O)N(Cc2nc(-c3ccc(C(F)(F)F)cc3)no2)C(C)C)cc1 [drawing 112]
IC50 [6]: 0.97 ± 0.15 µM

Cc1ccc(OCC(=O)N(Cc2nc(-c3ccc(Cl)cc3)no2)C(C)C)cc1 [drawing 113]
IC50 [6]: 0.45 ± 0.15 µM

CC(C)N(Cc1nc(-c2ccc(Cl)cc2)no1)C(=O)COc1ccc(C(F)(F)F)cc1 [drawing 114]
IC50 [6]: 0.58 µM and 0.857 µM

CC(C)N(Cc1nc(-c2ccc(C(F)(F)F)cc2)no1)C(=O)COc1ccc(C(F)(F)F)cc1 [drawing 115]
IC50 [6]: 2.53 ± 0.95 µM

CC(C)N(Cc1nc(-c2ccccc2)no1)C(=O)COc1ccc(C(F)(F)F)cc1 [drawing 116]
IC50 [6]: 0.43 ± 0.12 µM

Cc1ccc(OCC(=O)N(Cc2nc(-c3ccccc3)no2)C(C)C)cc1 [drawing 117]
IC50 [6]: 0.31 µM
